How the values were obtained:
pVHL19 [1] = biological target: T1, pVHL19 (Homo sapiens, UniProt P40337); experiment: Isothermal titration calorimetry (ITC) against VCB complex with short VHL isoform (V19CB); type: binding; set-up: made in house; conditions: ITC
Procedure: (§1) Protein expression and purification. Human proteins VHL (UniProt accession number: P40337), ElonginC (Q15369), and ElonginB (Q15370) were used for all protein expression. The short-isoform-containing VCB complex (V19CB) was expressed, purified and stored as described previously. For expression of the long-isoform-containing VCB complex (V30CB), N-terminally His6-tagged VHL (1–213), ElonginC (17–112) and ElonginB (1–104) were co-expressed in Escherichia coli BL21(DE3) at 20 °C for 18 h using 0.5 mM isopropyl β-D-1-thiogalactopyranoside (IPTG). E. coli cells were resuspended in binding buffer (50 mM HEPES, pH 8.0, 500 mM NaCl, 10 mM imidazole and 5 mM β-mercaptoethanol), lysed using a pressure cell homogenizer (Stansted Fluid Power), and lysate clarified by centrifugation. The supernatant was loaded onto a HisTrap FF affinity column (GE Healthcare) equilibrated with binding buffer, and bound protein was eluted using an imidazole gradient. The His6 tag was removed using thrombin protease (Sigma), and the untagged complex was dialyzed into binding buffer. V30CB was then loaded onto the HisTrap FF column a second time, allowing impurities to bind as the complex eluted without binding. The flow-through was dialyzed using a low-salt buffer (20 mM HEPES, pH 8.0, 25 mM NaCl and 1 mM DTT) and then loaded onto a Resource Q anion exchange column (GE Healthcare); bound protein was eluted across a linear NaCl gradient. V30CB was then additionally purified by size-exclusion chromatography using a Superdex-75 16/600 column (GE Healthcare) equilibrated with 20 mM HEPES, pH 7.5, 100 mM sodium chloride and 1 mM TCEP. All chromatography purification steps were performed using Äkta FPLC purification systems (GE Healthcare).
(§2) Isothermal titration calorimetry (ITC). Titrations were performed on an ITC200 micro-calorimeter (GE Healthcare). […] The final DMSO concentration was 0.15% v/v. VCB protein experiments were carried out in a buffer containing 20 mM Bis-tris propane, 150 mM NaCl, 1 mM TCEP, 0.15% v/v DMSO, pH 7.4. The titrations consisted of 19 injections of 2 µL compounds solution (150 µM, in the syringe) at a rate of 0.5 µl s^−1 at 120 s time intervals into the VCB protein solution (20 µM, in the cell). An initial injection of compound solution (0.4 µL) was made and discarded during data analysis. All experiments were performed at 25 °C, whilst stirring the syringe at 600 rpm. The data were fitted to a single binding site model to obtain the stoichiometry n, the dissociation constant K d and the enthalpy of binding ΔH using the Microcal LLC ITC200 Origin software provided by the manufacturer.
Target sequence in this assay (P40337 54-213): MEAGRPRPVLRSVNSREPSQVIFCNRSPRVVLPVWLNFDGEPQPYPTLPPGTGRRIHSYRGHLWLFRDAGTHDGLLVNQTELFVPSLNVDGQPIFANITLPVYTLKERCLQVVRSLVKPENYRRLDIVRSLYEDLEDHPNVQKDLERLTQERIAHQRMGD
Target sequence in this assay (Q15369 17-112 partner limits assumed): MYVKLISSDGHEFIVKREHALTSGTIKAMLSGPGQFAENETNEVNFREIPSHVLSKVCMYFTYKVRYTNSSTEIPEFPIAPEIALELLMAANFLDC
Target sequence in this assay (Q15370 1-104 partner limits assumed): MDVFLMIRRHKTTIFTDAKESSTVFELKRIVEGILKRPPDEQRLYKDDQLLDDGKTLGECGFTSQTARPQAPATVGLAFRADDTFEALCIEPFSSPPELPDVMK

pVHL30 [2] = biological target: T2, pVHL30 (Homo sapiens, UniProt P40337); experiment: Immunoblot of pVHL30 protein level in HeLa cells after compound treatment; type: cell-based; set-up: endogenous in cells; host or cells: HeLa; conditions: 1 µM, 10 h; for remaining activity at 1 µM: DMSO = 100, Fig. 4a, read-out: pVHL30 band quantification normalized to 0.1% DMSO
Procedure: (§3) Cell culture. Human cell lines HeLa, U2OS and HEK 293, purchased from ATCC, were propagated in DMEM supplemented with 10% fetal bovine serum (FBS), L- glutamine, 100 μg ml^−1 of penicillin/streptomycin at 37 °C and 5% CO2. Cells were maintained for no more than 30 passages. All cell lines were routinely tested for mycoplasma contamination using MycoAlert kit from Lonza. For compound treatment experiments, cells were transferred in six-well plates with either 3 × 10^5 or 5 × 10^5 cells per well in 2 ml of media. At 80% confluence, cells were treated with compounds at the desired concentration, reaching final DMSO concentration of 0.1% v/v. Cells were incubated at 37 °C and 5% CO2 for the desired time before harvesting.
(§4) Immunoblotting. Cells were lysed in lysis buffer (20 mM Tris pH 8, 150 mM NaCl, 1% Triton × 100) and a protease inhibitor cocktail (Roche) per 10 ml buffer. For protein extracts, the dishes were placed on ice. The media was aspirated and the tissue layer washed twice with ice-cold phosphate buffer saline (PBS). Lysis buffer (120 μl) was added and the cells detached from the surface with a cell scraper. After removal of the insoluble fraction by centrifugation, the protein concentration of the supernatant was determined by Pierce™ Coomassie (Bradford) Protein Assay Kit. Protein extracts were fractionated by SDS-PAGE on 4–12% Tris-Acetate NuPage® Novex® (Life Technologies) polyacrylamide gels and transferred to a nitrocellulose membrane using wet transfer. The membrane was then blocked with 5 % w/v Bovine serum albumin (BSA) in Tris-buffered saline (TBS) with 0.1% w/v Tween-20. For detecting proteins the following primary antibodies in the given concentrations were used: anti-β-Actin (Cell Signaling Technology, 4970S, 13E5) 1:2000, anti-VHL (Cell Signaling Technology, #68547) 1:1000, anti-Hif-1α (BD Biosciences, 610959, clone 54) 1:1,000, anti-hydroxy-HIF-1α (Hyp564) (Cell Signaling Techonology; #3434) 1:1,000, anti-PHD2 (Bethyl Laboratories; A300-322A) 1:1,000, anti-PHD3 (Bethyl Laboratories; A300-327A) 1:1000, anti-CRBN (Proteintech; 11435-1-AP) 1:1,000. Following incubation with a horseradish peroxidase-conjugated secondary antibody (Cell Signaling Technology), the signal was developed using enhanced chemiluminescence (ECL) Western Blotting Detection Kit (Amersham) on Amersham Hyperfilm ECL film (Amersham). Band quantification was performed using ImageJ software and reported as relative amount as ratio of the each protein band relative to the lane’s loading control. The values obtained were then normalized to 0.1% DMSO vehicle control. See Supplementary Fig. 12 for full-scanned images of western-blots shown in the main text figures.
Target sequence in this assay (P40337 whole entry): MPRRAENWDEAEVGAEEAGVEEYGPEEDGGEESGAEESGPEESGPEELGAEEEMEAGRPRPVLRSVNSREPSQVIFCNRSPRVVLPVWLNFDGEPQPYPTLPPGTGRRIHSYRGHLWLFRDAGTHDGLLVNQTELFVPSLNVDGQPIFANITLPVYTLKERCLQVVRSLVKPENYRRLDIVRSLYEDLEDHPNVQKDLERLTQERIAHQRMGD

V19CB = biological target: T3, V19CB (Homo sapiens, UniProt P40337); experiment: Size-exclusion chromatography (SEC) of complex formation with V19CB; type: binding; conditions: VCB 50 µM, compound 30 µM
T3 construct: made in house
Procedure: as §1
Size-exclusion chromatography (SEC). SEC experiments were carried out in a ÄKTA pure system (GE Healthcare) at room temperature. The oligomeric state of the VCB complex in solution was analyzed by gel filtration in a buffer containing 20 mM Bis-Tris (pH 7), 150 mM NaCl and 1 mM 1,4-dithiothreitol (DTT) using a Superdex 200 Increase 10/300 GL column (GE Healthcare) calibrated with globular proteins of known molecular weight (GE Healthcare, 28-4038-41/42). […] Sample volume for each injection was 200 µl, and the flow rate was 0.5 ml min^−1. Peak elution was monitored using ultraviolet absorbance at 280 nm.

pVHL19 [3] = biological target: T1, pVHL19; experiment: Immunoblot of pVHL19 protein level in HeLa cells after compound treatment; type: cell-based; set-up: endogenous in cells; host or cells: HeLa; conditions: 1 µM, 10 h, DMSO = 100, Fig. 4a, read-out: pVHL19 band quantification normalized to 0.1% DMSO
Procedure: as §3, §4
Target sequence in this assay (P40337 54-213): as the sequence (P40337 54-213) above
Target sequence in this assay (Q15369 whole entry partner, canonical isoform): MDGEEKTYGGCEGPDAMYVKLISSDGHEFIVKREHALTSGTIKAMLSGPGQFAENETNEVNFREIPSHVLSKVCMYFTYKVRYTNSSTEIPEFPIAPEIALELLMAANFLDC
Target sequence in this assay (Q15370 whole entry partner, canonical isoform): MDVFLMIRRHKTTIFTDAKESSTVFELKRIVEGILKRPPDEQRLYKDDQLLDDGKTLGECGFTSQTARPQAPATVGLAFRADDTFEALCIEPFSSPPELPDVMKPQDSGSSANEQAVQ

pVHL30 [4] = biological target: T2, pVHL30; experiment: Isothermal titration calorimetry (ITC) against VCB complex with long VHL isoform (V30CB); type: binding; set-up: N-terminally His6-tagged VHL (1–213), ElonginC (17–112) and ElonginB (1–104) were co-expressed; His6 (N, cleaved yes); made in house; host or cells: Escherichia coli BL21(DE3); conditions: 25 °C
Procedure: as §1, §2
Target sequence in this assay (P40337 whole entry): as the sequence (P40337 whole entry) above
Target sequence in this assay (Q15369 17-112 partner limits assumed): as the sequence (Q15369 17-112 partner limits assumed) above
Target sequence in this assay (Q15370 1-104 partner limits assumed): as the sequence (Q15370 1-104 partner limits assumed) above

T3 sequence (P40337 54-213): as the sequence (P40337 54-213) above
T3 sequence (Q15369 17-112 partner limits assumed): as the sequence (Q15369 17-112 partner limits assumed) above
T3 sequence (Q15370 1-104 partner limits assumed): as the sequence (Q15370 1-104 partner limits assumed) above

Structure (SMILES) | ΔG (pVHL19 [1]; 25 °C, pVHL19) | ΔH (pVHL19 [1]; 25 °C, pVHL19) | −TΔS (pVHL19 [1]; 25 °C, pVHL19) | Kd (pVHL19 [1]; 25 °C, pVHL19 (V19CB)) [nM] | n (pVHL19 [1]; 25 °C, stoichiometry of binding, pVHL19 (V19CB)) | depletion of target protein (pVHL30 / VHL) (pVHL30 [2]) | remaining activity at 1 µM (pVHL30 [2]) [%] | elution volume of small peak in SEC (V19CB) [mL] | shift of VCB peak / ternary complex formation in SEC (V19CB) | remaining activity at 1 µM (pVHL19 [3]) [%] | ΔG (pVHL30 [4]; pVHL30) | ΔH (pVHL30 [4]; pVHL30) | −TΔS (pVHL30 [4]; pVHL30) | Kd (pVHL30 [4]; pVHL30 (V30CB)) [nM] | n (pVHL30 [4]; stoichiometry of binding, pVHL30 (V30CB)) | binding to VCB by ITC (pVHL19 [1]; qualitative)
Cc1ncsc1-c1ccc(CNC(=O)[C@H]2C[C@@H](O)CN2C(=O)[C@H](NC(=O)COCCOCCOCCOCCOCC(=O)N[C@H](C(=O)N2C[C@H](O)C[C@H]2C(=O)NCc2ccc(-c3scnc3C)cc2)C(C)(C)C)C(C)(C)C)cc1 [CMP99, N ^1-((R)-1-((2R,4R)-4-hydroxy-2-((4-(4-methylthiazol-5-yl)benzyl)carbamoyl)pyrrolidin-1-yl)-3,3-dimethyl-1-oxobutan-2-yl)-N ^17-((S)-1-((2S,4R)-4-hydroxy-2-((4-(4-methylthiazol-5-yl)benzyl)carbamoyl)pyrrolidin-1-yl)-3,3-dimethyl-1-oxobutan-2-yl)-3,6,9,12,15-pentaoxaheptadecanediamide] | –9.33 ± 0.06 kcal mol^−1 | –6.23 ± 0.05 kcal mol^−1 | –3.1 ± 0.7 kcal mol^−1 | 146 ± 2 | 0.964 ± 0.005 | unable to induce degradation of VHL | 62 | 13.5 | No shift | 104 | –9.51 ± 0.05 kcal mol^−1 | –5.19 ± 0.03 kcal mol^−1 | –4.3 ± 0.1 kcal mol^−1 | 106 ± 10 | 1.050 ± 0.004 | 
Cc1ncsc1-c1ccc(CNC(=O)[C@@H]2C[C@H](O)CN2C(=O)[C@@H](NC(=O)COCCOCCOCCOCCOCCOCC(=O)N[C@H](C(=O)N2C[C@@H](O)C[C@H]2C(=O)NCc2ccc(-c3scnc3C)cc2)C(C)(C)C)C(C)(C)C)cc1 [CMP98, N ^1 ,N ^20-bis((S)-1-((2S,4S)-4-hydroxy-2-((4-(4-methylthiazol-5-yl)benzyl)carbamoyl)pyrrolidin-1-yl)-3,3-dimethyl-1-oxobutan-2-yl)-3,6,9,12,15,18-hexaoxaicosanediamide] |  |  |  |  |  | unable to induce degradation of VHL | 108 |  | No shift | 104 |  |  |  |  |  | binding was not detected

— publication PMC5635026, “Homo-PROTACs: bivalent small-molecule dimerizers of the VHL E3 ubiquitin ligase to induce self-degradation” (Nature Communications, 2017)
